Read-outs that look alike come from different tables or passages of the source.
Legend:
Assay type in all cases: cell-based
[1] = biological target: IKZF2 over IKZF1, IKZF3, and IKZF4 (Homo sapiens, UniProt Q96SW2+Q9UKS7); test: Selective degradation of IKZF2 over IKZF1, IKZF3 and IKZF4
Helios (IKZF2) = Helios (IKZF2) (Homo sapiens, UniProt Q96SW2+Q9UKS7); test: Screening of Helios protein degraders using Nano-Glo HiBiT cell line (HiBiT-IKZF2); conditions: 6 hours, HiBiT-Helios knock-in Jurkat cells; for remaining activity at 10 µM: compound 10 μM, read-out: HiBiT-IKZF2 Residual amount of Helios (%) 10 μM; for remaining activity at 1 µM: compound 1 μM, read-out: HiBiT-IKZF2 Residual amount of Helios (%) 1 μM
IKZF2 (Helios) = IKZF2 (Helios) (Homo sapiens, UniProt Q96SW2+Q9UKS7); test: Screening of DC50 (nM) and Dmax (%) using WB-IKZF2 cell line (Western blot); set-up: endogenous in cells; conditions: 6 hours; for DC50: read-out: WB-IKZF2 DC 50
Description: Experimental Example 2. Screening of DC50 (nM) and Dmax (%) Using WB-IKZF2 Cell Line
Candidate degraders were serially diluted and treated in cells cultured in complete medium, followed by incubation for 6 hours at 37° C. in a CO2 incubator. After 6 hours, the cells were harvested and lysed in RIPA buffer (150 mM NaCl, 1% Triton X-100, 1% sodium deoxycholate, 0.1% SDS, 50 mM Tris-HCl pH 7.5, and 2 mM EDTA) containing a protease inhibitor cocktail (Roche). The mixture was vortexed every 10 minutes and incubated on ice for 30 minutes, followed by centrifugation at 13,000 rpm for 10 minutes at 4° C. to isolate proteins. The isolated proteins were quantified using the Bradford assay (Bio-Rad, 5000006). Proteins were separated on 8% SDS-polyacrylamide gel, transferred onto nitrocellulose membranes (Amersham, 10600002), and incubated with primary antibodies at 4° C. for 18 hours. The following primary antibodies were used: anti-Helios rabbit monoclonal antibody (Cell Signaling, 42427, 1:3000) and anti-β-actin mouse monoclonal antibody (Santa Cruz, sc-47778, 1:5000). β-actin was used as a loading control. The next day, the membranes were washed with 1×TBST for 30 minutes and incubated with HRP-conjugated secondary antibodies corresponding to the primary antibodies at room temperature for 1 hour. The following secondary antibodies were used: anti-mouse IgG HRP-linked antibody (Sigma, A9044, 1:5000) and anti-rabbit IgG HRP-linked antibody (Cell Signaling, 7074, 1:5000). After washing with 1×TBST for 30 minutes, protein expression was visualized using the Pierce ECL Western blotting substrate (Thermo Fisher, 32106), and images were captured using a chemiluminescence image analysis system (GE Healthcare, AI680). The obtained images were quantified using the ImageJ software.

Helios protein = biological target: T1, Helios protein (Homo sapiens, UniProt Q96SW2+Q9UKS7); test: Measurement of Helios protein degradation using Western blot analysis in Jurkat cells (FIG. 1); conditions: 6 hours
T1 construct: endogenous in cells; host or cells: Jurkat cells
Description: To confirm the degradation of Helios protein by the degrader, Western blot analysis was performed. Jurkat cells (5×10^6) in complete medium were treated with serial dilutions of the compound at 37° C. in a CO2 incubator for 6 hours.
After harvesting the cells, they were lysed in RIPA buffer (LPS solution, CRB002) containing a protease inhibitor cocktail (Roche). The lysates were incubated on ice for 30 minutes with vortexing every 10 minutes, followed by centrifugation at 13,000 rpm for 10 minutes at 4° C. to isolate the cell lysates. The lysates were quantified using the Bradford assay (Bio-Rad, 5000006).
30 μg of the lysates were separated by 8% SDS-polyacrylamide gel electrophoresis (SDS-PAGE), and the proteins were transferred to a nitrocellulose (NC) membrane (Amersham, 10600002), followed by incubation with primary antibodies at 4° C. for 18 hours. […]
After washing with 1×TBST for 30 minutes, protein expression was visualized using Pierce ECL Western blotting substrate (Thermo Fisher, 32106), and the images were acquired using a chemiluminescence imaging system (GE Healthcare, AI680). The resulting images were quantified using ImageJ software. The results of Helios protein degradation measured with compound 39 of the present disclosure and comparative compound DKY709 are shown in FIG. 1.

IKZF2 (Helios), sequence (Q9UKS7 whole entry): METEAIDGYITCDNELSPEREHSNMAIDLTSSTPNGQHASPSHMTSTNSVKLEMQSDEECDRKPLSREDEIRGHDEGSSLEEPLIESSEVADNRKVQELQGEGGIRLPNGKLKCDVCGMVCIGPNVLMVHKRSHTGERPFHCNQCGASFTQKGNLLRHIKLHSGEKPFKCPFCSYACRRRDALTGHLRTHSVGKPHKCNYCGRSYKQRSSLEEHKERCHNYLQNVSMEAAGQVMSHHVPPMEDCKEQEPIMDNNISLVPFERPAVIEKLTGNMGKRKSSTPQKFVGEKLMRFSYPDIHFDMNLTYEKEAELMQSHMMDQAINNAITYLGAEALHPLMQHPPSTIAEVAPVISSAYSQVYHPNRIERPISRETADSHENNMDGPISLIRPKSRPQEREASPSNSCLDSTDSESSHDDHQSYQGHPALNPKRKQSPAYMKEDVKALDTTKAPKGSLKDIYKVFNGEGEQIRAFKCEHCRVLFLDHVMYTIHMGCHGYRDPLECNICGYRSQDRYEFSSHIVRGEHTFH
IKZF2 (Helios), sequence (Q96SW2 whole entry): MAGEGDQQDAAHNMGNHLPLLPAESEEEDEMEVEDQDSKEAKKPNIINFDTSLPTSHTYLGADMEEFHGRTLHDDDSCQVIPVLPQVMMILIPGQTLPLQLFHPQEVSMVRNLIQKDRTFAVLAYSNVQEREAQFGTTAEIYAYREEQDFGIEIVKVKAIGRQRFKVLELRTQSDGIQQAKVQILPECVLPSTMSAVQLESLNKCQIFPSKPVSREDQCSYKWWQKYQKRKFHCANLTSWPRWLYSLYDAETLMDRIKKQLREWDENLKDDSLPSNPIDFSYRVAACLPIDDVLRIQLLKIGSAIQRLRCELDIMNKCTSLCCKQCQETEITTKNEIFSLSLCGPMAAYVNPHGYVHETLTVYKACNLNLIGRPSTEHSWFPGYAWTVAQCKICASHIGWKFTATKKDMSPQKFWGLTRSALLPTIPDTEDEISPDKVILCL
IKZF2 (Helios), sequence (Q16531 whole entry partner): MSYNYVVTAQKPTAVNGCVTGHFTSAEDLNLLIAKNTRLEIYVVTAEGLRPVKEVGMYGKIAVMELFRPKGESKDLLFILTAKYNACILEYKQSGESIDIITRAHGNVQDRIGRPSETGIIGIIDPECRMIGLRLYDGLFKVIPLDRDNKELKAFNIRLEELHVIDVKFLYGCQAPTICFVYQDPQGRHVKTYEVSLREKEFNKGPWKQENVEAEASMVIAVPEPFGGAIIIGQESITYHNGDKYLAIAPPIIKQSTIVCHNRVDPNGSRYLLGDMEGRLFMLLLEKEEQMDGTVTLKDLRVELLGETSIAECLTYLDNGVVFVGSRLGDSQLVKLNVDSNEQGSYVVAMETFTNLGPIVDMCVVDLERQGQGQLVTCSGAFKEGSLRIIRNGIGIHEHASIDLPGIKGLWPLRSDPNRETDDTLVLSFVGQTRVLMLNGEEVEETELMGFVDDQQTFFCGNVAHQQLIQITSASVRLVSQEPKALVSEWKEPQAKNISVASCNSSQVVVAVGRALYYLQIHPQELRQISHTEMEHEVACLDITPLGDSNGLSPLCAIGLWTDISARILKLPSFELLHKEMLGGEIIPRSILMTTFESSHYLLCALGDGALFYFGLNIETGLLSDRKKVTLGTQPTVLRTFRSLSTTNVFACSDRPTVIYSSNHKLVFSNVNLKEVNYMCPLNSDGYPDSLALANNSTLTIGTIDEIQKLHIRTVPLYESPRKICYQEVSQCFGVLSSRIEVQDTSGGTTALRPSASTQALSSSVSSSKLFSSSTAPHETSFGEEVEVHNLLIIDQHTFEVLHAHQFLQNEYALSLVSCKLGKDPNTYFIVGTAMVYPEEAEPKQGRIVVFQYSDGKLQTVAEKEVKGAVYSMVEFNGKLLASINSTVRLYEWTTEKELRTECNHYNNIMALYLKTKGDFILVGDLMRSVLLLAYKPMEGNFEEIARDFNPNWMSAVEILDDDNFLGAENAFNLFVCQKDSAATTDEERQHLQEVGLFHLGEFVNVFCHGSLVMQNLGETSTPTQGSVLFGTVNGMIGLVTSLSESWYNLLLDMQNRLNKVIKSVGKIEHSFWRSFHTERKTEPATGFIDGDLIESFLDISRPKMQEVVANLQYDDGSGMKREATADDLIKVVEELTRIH
Helios (IKZF2), sequence (Q9UKS7 whole entry): as the sequence (Q9UKS7 whole entry) above
Helios (IKZF2), sequence (Q96SW2 whole entry): as the sequence (Q96SW2 whole entry) above
Helios (IKZF2), sequence (Q16531 whole entry partner): as the sequence (Q16531 whole entry partner) above
T1 sequence (Q9UKS7 whole entry): as the sequence (Q9UKS7 whole entry) above
T1 sequence (Q96SW2 whole entry): as the sequence (Q96SW2 whole entry) above
T1 sequence (Q16531 whole entry partner): as the sequence (Q16531 whole entry partner) above

Compound: O=C1CCC(N2Cc3cc(C4CCN(C(=O)c5[nH]c6cc(Cl)ccc6c5CN5CCOCC5)CC4)ccc3C2=O)C(=O)N1 (stereo not shown) [Compound 82, 3-(5-(1-(6-chloro-3-(morpholinomethyl)-1H-indole-2-carbonyl)piperidin-4-yl)-1-oxoinsoindolin-2-yl)piperidine-2,6-dione]
- selective degradation activity for IKZF2 over IKZF1, IKZF3, and IKZF4 [1]: selective degradation activity for IKZF2 over IKZF1, IKZF3, and IKZF4
- remaining activity at 10 µM (Helios (IKZF2)): 7.4%
- DC50 (IKZF2 (Helios); class symbols): 10 to 100 nM

Compound: Cc1c(C(=O)N2CCC(c3ccc4c(c3)CN(C3CCC(=O)NC3=O)C4=O)CC2C)[nH]c2cc(Cl)ccc12 (stereo not shown) [Compound 60, 3-(5-(1-(6-chloro-3-methyl-1H-indole-2-carbonyl)-2-methylpiperidin-4-yl)-1-oxoinsoindolin-2-yl)piperidine-2,6-dione]
- remaining activity at 10 µM (Helios (IKZF2)): 5.4%
- DC50 (IKZF2 (Helios); class symbols): 10 to 100 nM

Compound: Cc1c(C(=O)N2CCC(c3ccc4c(c3)CN(C3CCC(=O)NC3=O)C4=O)CC2)[nH]c2cc(Cl)ccc12 (stereo not shown) [Compound 39, 3-(5-(1-(6-chloro-3-methyl-1H-indole-2-carbonyl)piperidin-4-yl)-1-oxoinsoindolin-2-yl)piperidine-2,6-dione]
- remaining activity at 1 µM (Helios (IKZF2)): 6.6%
- remaining activity at 10 µM (Helios (IKZF2)): 5.5%
- Helios protein degradation activity compared to comparative compound 1 (DKY709) (Helios protein): more than 1,000 fold
- Dmax (IKZF2 (Helios)): 100%
- DC50 (IKZF2 (Helios); numeric value): 0.19 nM

Compound: Cc1c(C(=O)N2CCC(c3ccc4c(c3F)CN(C3CCC(=O)NC3=O)C4=O)CC2)[nH]c2cc(Cl)c(F)cc12 (stereo not shown) [Compound 113, 3-(5-(1-(6-chloro-5-fluoro-3-methyl-1H-indole-2-carbonyl)piperidin-4-yl)-4-fluoro-1-oxoinsoindolin-2-yl)piperidine-2,6-dione]
- remaining activity at 1 µM (Helios (IKZF2)): 14.1%
- Dmax (IKZF2 (Helios)): 96%
- DC50 (IKZF2 (Helios); class symbols): < 10 nM

Compound: Cc1c(C(=O)N2CCC(c3ccc4c(c3)CN(C3CCC(=O)NC3=O)C4=O)CC2)[nH]c2cc(C#N)ccc12 (stereo not shown) [Compound 52, 2-(4-(2-(2,6-dioxopiperidin-3-yl)-1-oxoindolin-5-yl)piperidine-1-carbonyl)-3-methyl-1H-indole-6-carbonitrile]
- remaining activity at 10 µM (Helios (IKZF2)): 10.8%
- DC50 (IKZF2 (Helios); class symbols): 10 to 100 nM

Compound: Cc1c(C(=O)N2CCC(c3ccc4c(c3F)CN(C3CCC(=O)NC3=O)C4=O)CC2)[nH]c2cc(Cl)ccc12 (stereo not shown) [Compound 91, 3-(5-(1-(6-chloro-3-methyl-1H-indole-2-carbonyl)piperidin-4-yl)-4-fluoro-1-oxoinsoindolin-2-yl)piperidine-2,6-dione]
- remaining activity at 10 µM (Helios (IKZF2)): 6.4%
- Dmax (IKZF2 (Helios)): 100%
- DC50 (IKZF2 (Helios); class symbols): < 10 nM

Compound: Cc1c(C(=O)N2CCC(O)(c3ccc4c(c3)CN(C3CCC(=O)NC3=O)C4=O)CC2)[nH]c2cc(Cl)ccc12 (stereo not shown) [Compound 64, 3-(5-(1-(6-chloro-3-methyl-1H-indole-2-carbonyl)-4-hydroxypiperidin-4-yl)-1-oxoinsoindolin-2-yl)piperidine-2,6-dione]
- remaining activity at 10 µM (Helios (IKZF2)): 8.1%
- DC50 (IKZF2 (Helios); class symbols): 10 to 100 nM

Compound: COc1cc2c(C)c(C(=O)N3CCC(c4ccc5c(c4F)CN(C4CCC(=O)NC4=O)C5=O)CC3)[nH]c2cc1Cl (stereo not shown) [Compound 108, 3-(5-(1-(6-chloro-5-methoxy-3-methyl-1H-indole-2-carbonyl)piperidin-4-yl)-4-fluoro-1-oxoinsoindolin-2-yl)piperidine-2,6-dione]
- remaining activity at 1 µM (Helios (IKZF2)): 8.3%
- remaining activity at 10 µM (Helios (IKZF2)): 7.5%
- Dmax (IKZF2 (Helios)): 100%
- DC50 (IKZF2 (Helios); class symbols): < 10 nM

Compound: COc1cc2c(C)c(C(=O)N3CCC(c4ccc5c(c4)CN(C4CCC(=O)NC4=O)C5=O)CC3)[nH]c2cc1Cl (stereo not shown) [Compound 71, 3-(5-(1-(6-chloro-5-methoxy-3-methyl-1H-indole-2-carbonyl)piperidin-4-yl)-1-oxoinsoindolin-2-yl)piperidine-2,6-dione]
- remaining activity at 1 µM (Helios (IKZF2)): 14.2%
- remaining activity at 10 µM (Helios (IKZF2)): 25.3%
- Dmax (IKZF2 (Helios)): 100%
- DC50 (IKZF2 (Helios); class symbols): < 10 nM
